{"source": "paper PMC5684143", "about": "“New melanocortin-like peptide of E. coli can suppress inflammation via the mammalian melanocortin-1 receptor (MC1R): possible endocrine-like function for microbes of the gut” (NPJ Biofilms and Microbiomes, 2017)", "key": {"RAW 264.7 cells": {"tested_on": "RAW 264.7 cells", "assay": "Poly I:C-induced TNF release by RAW 264.7 cells", "type": "cell-based, murine", "details": "peptide 10^−15 to 10^−9 M; reduced effects above that", "description": "Murine macrophage-like RAW 264.7 cells were obtained from American Type Culture Collection, and were grown in Dulbecco’s Modified Eagle’s Medium (DMEM, Life Technologies) containing 10% (vol/vol) heat-inactivated fetal bovine serum (FBS, Hyclone Lab. Inc.), penicillin 100 U/ml, and streptomycin 100 μg/ml (BioWhittaker Inc.). Cells were suspended in medium and incubated in 24-well or 48-well tissue-culture plates overnight in a humidified incubator (37 °C, 5% CO2). Growth medium was removed and replaced by Opti-MEM I serum-free medium (Life Technologies) overnight. In the experiments, cell monolayers were stimulated with HMGB1 or LPS, in the absence or presence of MECO-1 or alpha-MSH; cell-free supernatants were assayed for TNF by ELISA or HMGB1 by western blotting.\nConcentrations of TNF and IL-6 were each determined using a commercially available enzyme-linked immunosorbent assay (ELISA) kit (R&D System Inc.) as previously described.[34] The levels of TNF or IL-6 were calculated with reference to standard curves.\nFig. 2 Cytokine-induced TNF release inhibited by MECO-1. a Lipopolysaccharide (LPS), derived from the cell wall of Gram-negative bacteria, is a TLR4 and TLR2 agonist. RAW 264.7 cells were treated with MECO-1 and LPS simultaneously and incubated overnight. Supernatants were tested for TNF with ELISA. b Poly I:C, synthetic double stranded RNA, is recognized by TLR3. […]"}, "NF-kappa B": {"tested_on": "NF-kappa B", "assay": "NF-kappa-B activity (electrophoretic mobility shift assay) in LPS-treated RAW 264.7 cells", "type": "cell-based, murine", "details": "LPS 100 ng/ml; peptide 10^-8 M and 10^-6 M; 2 hours; EMSA; two separate experiments", "description": "Nuclear extracts were prepared from 1 × 10^6 treated cells using the NE-PER nuclear extraction reagents (Pierce). DNA was biotin labeled using the biotin 3ʹ-end-labeling kit (Pierce) in a 50-µl reaction buffer and 5 pmol of double-stranded NF-kappa-B oligonucleotide (5ʹ-[…]-3ʹ and 3ʹ-[…]-5ʹ, Promega). Electrophoretic mobility shift assays for NF-κB was performed using the Lightshift Chemiluminescent Electrophoretic Mobility Shift Assay kit (Pierce) following the manufacturer’s protocol. Densitometric values for the active transcription factors were obtained using GS-800 Calibrated Densitometer Software (Biorad).[36]\nRAW 264.7 cells ([…]) were incubated with LPS (100 ng/ml) with or without MECO-1 or alpha-MSH at 10^-8 M and 10^-6 M for 2 hours. Nuclear extracts were mixed with biotin-labeled oligonucleotides containing binding sites for NF-kappa B and then run on a gel, 4-20% Ready gel TBE, in an electrophoretic mobility shift assay. Data represent mean +/- SEM of two separate experiments."}, "Balb/C mice": {"tested_on": "Balb/C mice", "assay": "CLP sepsis, survival and serum cytokines at 40 h (protocol B)", "type": "in vivo", "details": "one dose 5 mg/kg i.p. at 24 h", "description": "In vivo studies were performed in accordance with National Institutes of Health guidelines and with the approval of the North Shore-Long Island Jewish Health System’s Institutional Animal Care and Use Committee (IACUC). In mice, polymicrobial sepsis was induced by surgical ligation and perforation of the cecum, a widely used technique known as CLP. Briefly, male BALB/c mice (7–8 weeks old, 20–25 g) were anesthetized with a mixture of ketamine (100 mg/kg) and xylazine (8 mg/kg) intramuscularly, and a 15 mm midline incision was made to expose the cecum. After ligation of the cecum with a 6.0 silk suture below the junction of the ileo–cecal valve, the ligated cecal stump was perforated once with a 22-gauge needle. The cecum was then gently squeezed to extrude a small amount of feces through the perforation site. The cecum was restored to its normal intra-abdominal position, and the laparotomy was closed with 6.0 silk sutures. Immediately after CLP surgery, all animals were resuscitated with normal saline solution (subcutaneously 20 ml/kg body weight), and given a single dose of antibiotics (primaxin 0.5 mg/kg). In sham operated animals, the cecum was temporarily ligated, but the bowel was not punctured; these animals also received antibiotic treatment and resuscitation fluid. […] Survival was monitored twice daily for 2 weeks, at which time survivors were killed (CO2 asphyxia). […] Survival was monitored twice daily after surgery. […]\nThe levels of HMGB1 in the culture medium or murine serum were measured by western immunoblotting as previously described.[30] […] The relative band intensity was quantified by using the NIH image 1.59 software. The levels of HMGB1 (expressed as % maximum effect) were calculated with reference to standard curves generated with purified rHMGB1 and expressed as mean ± SEM of four experiments.\nConcentrations of TNF and IL-6 were each determined using a commercially available enzyme-linked immunosorbent assay (ELISA) kit (R&D System Inc.) as previously described.[34] The levels of TNF or IL-6 were calculated with reference to standard curves. […]"}}}
{"substance": "alpha-melanocyte-stimulating hormone [alpha-MSH]", "values": [{"measurement": "inhibition of Poly I:C-induced TNF release", "setting": "RAW 264.7 cells", "result": "up to 90%"}, {"measurement": "rise in NF-kB activity", "setting": "NF-kappa B", "result": "active in attenuating"}, {"measurement": "serum TNF and IL-6 in survivors at 40 h after CLP", "setting": "Balb/C mice; ELISA, p < 0.05 vs CLP alone", "result": "significantly muted responses"}, {"measurement": "animals surviving to 40 h after CLP", "setting": "Balb/C mice; n = 10, saline four out of nine", "result": "Six of ten"}, {"measurement": "animals with elevated serum HMGB1 at 40 h after CLP", "setting": "Balb/C mice; western blot, saline three of four", "result": "none"}]}
